From paper PMC11091243, “PD-L1 targeted peptide demonstrates potent antitumor and immunomodulatory activity in cancer immunotherapy” (Frontiers in Immunology, 2024)

How the values were obtained:
mouse PD-L1 (mPD-L1) = mouse PD-L1 (mPD-L1) (Mus musculus, UniProt Q9EP73); test: Fluorescence-based ELISA, binding specificity; details: 20 μmol/L FITC-labeled peptide, 1.5 h room temperature, n = 3
Procedure: (§1) Fluorescence-based ELISA and cell-based tests were used to examine the binding specificity of PPL-C to PD-L1. To perform the ELISA, fluorescent plates were coated with 100 μL human PD-L1 (hPD-L1), mouse PD-L1 (mPD-L1), and BSA in PBS (pH 7.4) overnight at 4°C, respectively. Blocked the plates with 1% BSA (in PBST) for an hour at room temperature and rinsed twice with PBST. Then added peptides (20 μmol/L FITC-labeled PPL-C/Control peptide) and incubated for 1.5 hours at room temperature. With excitation at 488 nm and emission at 515 nm, the Cytation 3 instrument (BioTek) was used to measure the relative fluorescence intensity. Both attached and detached cells were used in the cell-based flow cytometry analysis. […] After that, cells were treated for 40 minutes at 4°C on an inversion shaker with PD-L1 antibody from Biolegend and 4 μmol/L FITC-labeled peptides (PPL-C/Control peptide). Each tube was washed twice with PBS following incubation and flow cytometry was carried out using a FACSort device. FlowJo software was used to evaluate the data that was acquired.

LLC cells = test: Flow cytometry binding to LLC cells; type: cell-based, mouse; details: higher PD-L1 expression than MC38
Procedure: as §1

[1] = system: PD-L1-mediated suppression of CD4+ T cells; test: T-cell activation assay (CD4+ T cells on anti-CD3/PD-L1 coated plates); type: cell-based, mouse
Procedure: Following the manufacturer’s instructions, mouse peripheral blood mononuclear cells (PBMCs) were isolated from a healthy mouse using separation fluid. Then, CD4 (L3T4) MicroBeads were used to separate CD4+ T cells from PBMCs, and a CD4-PE/Cy5 antibody was employed to determine effectiveness. Cells were adjusted to a concentration of 5×10^5 cells/mL in IMDM supplemented with 10% FBS and 20 ng/mL IL-2 to produce CD4+ T-cell blasts. A 1:1 ratio of mouse T-activator CD3/CD28 beads was introduced to the cells. Every other day, new media was added, and on day 7, cells were collected and stored for later use. 100 μL of anti-mouse CD3 (1 μg/mL) were applied to each well and incubated at 4°C overnight. Next, the wells were rinsed twice with […] of PBS. The wells were then filled with 100 μL of PD-L1 […] and the plates were incubated at 37°C for 3 hours before receiving two PBS washes. Then, varying quantities of PD-L1 monoclonal antibodies and peptides (PPL-C or control peptide) were added to the appropriate wells, and the plates were incubated at 37°C for an hour. The wells were then washed twice with PBS. Finally, CD4^+ T cells (5×10^4 cells/well) were added, then centrifugated the plate at 1,000 RMP for 2 min. The cells were then cultured for three days at 37°C in a humidified incubator with 5% CO2. A mouse IFN-γ ELISA Kit was used to assess the quantity of IFN-γ in culture supernatant. […]

CD4+ T cells in MLR = test: Mixed lymphocyte reaction (DCs, CT26 tumor cells, CD4+ T cells); type: cell-based, mouse; details: 20 μmol/L, versus control and control peptides, day 3, n = 3
Procedure: Fresh PBMCs were cultured in IMDM at 37°C for 2 hours and washed twice in PBS. Then cells were cultured in IMDM supplemented with 10% FBS, 25 ng/mL GM-CSF, and 50 ng/mL IL-4. Fresh medium was added every three days. TNF-α (50 ng/mL) was added on the sixth day to stimulate the maturation of dendritic cells (DCs) for 24 hours. The mature DCs were then frozen to be harvested later. Solid tumor tissues from the CT26 tumor-bearing animal have been removed and fragmented to collect tumor cells. In RPMI 1640 medium supplemented with 10% FBS, 2 mM L-glutamine, […] streptomycin, and 200 U/mL penicillin, these fragments were subjected to digestion with a combination of triple enzymes (collagenase, DNase, and hyaluronidase) for a maximum of 2 hours. The resultant cell suspension was then grown in complete RPMI 1640 medium at 37°C with 5% CO2 for 24 hours. The goal of this culture phase was to re-establish PD-L1 expression on the tumor cell surface since collagenase digestion may have destroyed it. DCs and tumor cells were both given a 2-hour treatment with mitomycin C (MMC) at a dosage of 100 μg/mL before the start of mixed lymphocyte responses (MLR). After thawing, the CD4+ T cells were cultured for overnight. […] Cell growth and IFN-γ levels in culture supernatants were measured on day 3.

[2] = system: serum cytokines of CT26-bearing mice; test: Cytokine ELISA of serum of treated CT26-bearing mice; type: in vivo, mouse; details: 14 days of administration, versus untreated and control peptide groups
Procedure: After 14 days of continuous administration, 0.5-1.0 ml of peripheral blood was collected from the mice. Serum was isolated from peripheral blood using the posterior orbital venous plexus blood collection method. The serum was obtained by centrifuging at 2000 RMP for 10 minutes. Mouse total lymphocytes were isolated from the spleen using Ficoll density gradient fractionation (Shanghai Biotech Bioengineering). In 200 μL of RIPM medium with 10% FBS, 1×10^6 tumor cells were seeded in each well with a CT26: lymphocyte ratio of 1:2 and incubated for 48 and 72 hours. Cell growth medium was harvested by centrifuging at 2000 RPM for 10 min. For the analysis of cytokine production, lymphocyte growth media served as a positive control and cell-free growth medium served as a negative control. Following the manufacturer’s instructions, the levels of IL-2, IL-4, IL-6, IL-10, TNF-α and IFN-γ in the blood and cell growth media were assessed using LEGEND MAX™ ELISA kit (BioLegend Inc, USA). Three duplicates of each experiment were carried out.

CT26 cells = test: Cytotoxicity of spleen lymphocytes of treated mice against CT26 cells (CCK8); type: cell-based, mouse; details: CT26:lymphocyte 1:2, 48 h, CCK8, n = 6, versus untreated and control peptide groups
Procedure: After 14 consecutive days of administration, total lymphocytes were isolated from mouse spleens using Ficoll density gradient fractionation, which was provided by Shanghai Biotech Bioengineering. Before co-incubation with lymphocytes, CT26 cells were treated with 100 μg/mL mitomycin C (MMC) for 2 hours for […] experiments. For cytotoxicity experiments, about 1×10^6 tumor cells were seeded in each well with a CT26: lymphocyte ratio of 1: 2 in 200 μL RIPM medium plus 10% FBS for 48 h. A corresponding negative control group was also designed. During the final two hours of the incubation, 10 µL of CCK8 reagent was added to each well following the manufacturer’s instructions (Biotech Bioengineering Cat: E606335). Using an ELISA plate reader (Molecular Devices, USA) the absorbance was determined at 450 nm. There were three duplicates of each experiment.

Sequence of mouse PD-L1 (mPD-L1) (Q9EP73 19-290): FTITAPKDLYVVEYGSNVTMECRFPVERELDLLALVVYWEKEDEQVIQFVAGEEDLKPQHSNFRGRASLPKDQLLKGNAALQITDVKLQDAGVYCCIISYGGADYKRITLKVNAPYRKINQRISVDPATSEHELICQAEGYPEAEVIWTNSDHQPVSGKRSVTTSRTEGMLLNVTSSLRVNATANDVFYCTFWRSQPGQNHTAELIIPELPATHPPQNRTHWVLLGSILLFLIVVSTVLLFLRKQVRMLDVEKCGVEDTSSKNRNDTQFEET

## CC(C)[C@H](NC(=O)[C@H](CO)NC(=O)[C@@H](NC(=O)[C@@H](N)CO)C(C)C)C(=O)N[C@@H](CO)C(=O)N[C@@H](Cc1c[nH]cn1)C(=O)N[C@@H](Cc1ccccc1)C(=O)N[C@@H](CCC(N)=O)C(=O)N[C@@H](CCCCN)C(=O)N[C@H](C(=O)N[C@@H](Cc1c[nH]c2ccccc12)C(=O)N[C@H](C(=O)N[C@H](C(=O)NCC(=O)NCC(=O)NCC(=O)N[C@@H](CO)C(=O)N[C@@H](CCCCN)C(N)=O)C(C)C)C(C)C)C(C)C [PPL-C]
Mouse PD-L1 (mPD-L1)
  Binding to mPD-L1: higher specificity
LLC cells
  Affinity to LLC cells: higher affinity
[1]; 20 μmol/L, CCK-8, n = 3
  T-cell proliferation: increased significantly
[1]; versus control peptide, 3 days, ELISA, n = 3
  IFN-γ release of CD4+ T lymphocytes: significant increase
CD4+ T cells in MLR
  IFN-γ release in MLR: significantly higher release
[2]
  IFN-γ, IL-2, IL-4 and IL-6 secretion in serum: significantly promoted
  IL-10 secretion in serum: lower IL-10 secretion
CT26 cells
  Effect of lymphocytes from treated mice on tumor cell proliferation: significantly inhibited tumor cell proliferation
